Ten compounds from paper PMC11642940, “A New Demand for Improved Selectivity and Potency of Cyanine Dyes as Antiproliferative Agents Against Colorectal Cancer Cells” (Molecules, 2024) can be followed below.

Read-outs that look alike come from different tables or passages of the source.

Data set [1] in a line: MTT cell viability assay, NHDF. It is filed as cell-based, human. The conditions noted are these: human, 10 µM, 72 h, mean ± SD, read-out: cell viability percentage in relation to control, NHDF.
Protocol: (§4) The cell lines used in this study (Caco-2, MCF-7, PC-3, and NHDF) were obtained from the American Type Culture Collection (ATCC, Manassas, VA, USA) and cultured in 75 cm^2 culture flasks at 37 °C in a humidified atmosphere with 5% CO2 in a LEEC Culture Safe Precision CO2 Incubator. PC-3 cells were grown in Roswell Park Memorial Institute (RPMI) medium supplemented with 10% of inactivated Fetal Bovine Serum (FBS) and 1% of an antibiotic mixture (Sp; 10,000 U/mL of penicillin G and 100 mg/mL of streptomycin). MCF-7 and Caco-2 cell lines were both cultured using Dulbecco’s Modified Eagle Medium (DMEM). However, the medium for MCF-7 cells was complemented with 10% of inactivated FBS and 1% of antibiotic/antimycotic mixture (Ab; 10,000 U/mL of penicillin G, 100 mg/mL of streptomycin and 25 µg/mL of amphotericin B), and the medium for Caco-2 cells was supplemented with 20% of inactivated FBS and 1% of Sp. Finally, RPMI medium supplemented with 10% FBS, 2 mM of L-glutamine, 10 mM of 4-(2-hydroxyethyl)-1-piperazineethanesulfonic acid (HEPES), 1 mM of sodium pyruvate, and 1% of Ab was used to culture NHDF cells. The culture media were renewed every two to three days until near confluence was achieved. Then, cells were detached using a solution of 0.125 g/L of trypsin and 0.02 g/L of ethylenediaminetetracetic acid (EDTA), counted by the trypan blue method, resuspended, and adequately seeded to continue the culture in 75 cm^2 flasks or for the experiments described below. All manipulations were performed in a Labculture Class II A2 Biological Safety Cabinet.
The test system of data set [2] is normal human dermal fibroblasts (NHDF). Kind of data set: MTT cell viability assay, NHDF. It is filed as cell-based. Particulars: Homo sapiens, NHDF, read-out: IC50 NHDF.
Protocol: as §4
Data set [3] is described as follows: MTT cell viability assay, Caco-2. Particulars: human. The procedure: (§1) To evaluate the anticancer potential of monomethine cyanine dyes 1–12, a cell proliferation study was conducted using the 3-(4,5-dimethylthiazol-2-yl)-2,5-diphenyltetrazolium bromide (MTT) assay. For this preliminary evaluation, a concentration of 10 µM for each dye was tested, with the well-established chemotherapy agent 5-fluorouracil (5-FU) serving as a positive control. The assay included normal human dermal fibroblasts (NHDF) as non-tumor cells, alongside tumor cell lines from colorectal (Caco-2), prostate (PC-3), and breast (MCF-7) adenocarcinomas.
(§2) The cell lines used in this study (Caco-2, MCF-7, PC-3, and NHDF) were obtained from the American Type Culture Collection (ATCC, Manassas, VA, USA) and cultured in 75 cm^2 culture flasks at 37 °C in a humidified atmosphere with 5% CO2 in a LEEC Culture Safe Precision CO2 Incubator. PC-3 cells were grown in Roswell Park Memorial Institute (RPMI) medium supplemented with 10% of inactivated Fetal Bovine Serum (FBS) and 1% of an antibiotic mixture (Sp; 10,000 U/mL of penicillin G and […] of streptomycin). MCF-7 and Caco-2 cell lines were both cultured using Dulbecco’s Modified Eagle Medium (DMEM). However, the medium for MCF-7 cells was complemented with 10% of inactivated FBS and 1% of antibiotic/antimycotic mixture (Ab; 10,000 U/mL of penicillin G, […] of streptomycin and 25 µg/mL of amphotericin B), and the medium for Caco-2 cells was supplemented with 20% of inactivated FBS and 1% of Sp. Finally, RPMI medium supplemented with 10% FBS, 2 mM of L-glutamine, 10 mM of 4-(2-hydroxyethyl)-1-piperazineethanesulfonic acid (HEPES), 1 mM of sodium pyruvate, and 1% of Ab was used to culture NHDF cells. The culture media were renewed every two to three days until near confluence was achieved. Then, cells were detached using a solution of 0.125 g/L of trypsin and 0.02 g/L of ethylenediaminetetracetic acid (EDTA), counted by the trypan blue method, resuspended, and adequately seeded to continue the culture in 75 cm^2 flasks or for the experiments described below. All manipulations were performed in a Labculture Class II A2 Biological Safety Cabinet.
(§3) After trypsinization, cells were seeded in 96-well culture plates (100 µL; 2 × 10^4 cells/mL), and after 48 h (for adherence), they were incubated with the compounds under study in the absence of light for a duration of 72 h. Then, the medium was removed, and fresh incomplete culture medium (without FBS and Ab or Sp) and MTT solution [5 mg/mL in phosphate buffer saline (PBS)] were added to each well, followed by 4 h of incubation. After this, the medium containing MTT was removed and DMSO was added to dissolve formazan crystals. The absorbance of each well at 570 nm was determined using a microplate spectrophotometer Bio-Rad (Hercules, CA, USA) xMark. Untreated cells were considered the negative control, and 5-FU, a clinically used drug, was considered the positive control. For data analysis, the relative cell proliferation relative to the negative control cells was calculated. For each cell viability study, at least two independent assays in quadruplicate were performed. Increasing concentrations of the compounds between 0.001 and 100 μM were used to determine the IC50 values.

The subject of data set [4] is Caco-2 colorectal adenocarcinoma cells. The data set can be described thus: MTT cell viability assay, Caco-2. Particulars: Homo sapiens, Caco-2, 72 h; for IC50: read-out: IC50 Caco-2; for viability at 10 µM: read-out: cell viability percentage in relation to control, Caco-2. The procedure: as §1, §2, §3
Data set [5] concerns PC-3 prostate adenocarcinoma cells. The data set can be described thus: MTT cell viability assay, PC-3. The conditions noted are these: for viability at 10 µM: read-out: cell viability percentage in relation to control, PC-3; for SI PC-3 (selectivity index versus NHDF): PC-3 versus NHDF. The procedure: as §1, §2, §3
Data set [6] has as its system MCF-7 breast adenocarcinoma cells. Kind of data set: MTT cell viability assay, MCF-7. The conditions noted are these: for viability at 10 µM / IC50: Homo sapiens, MCF7, 72 h; for viability at 10 µM: read-out: cell viability percentage in relation to control, MCF-7; for IC50: read-out: IC50 MCF-7, MCF-7, 72 h incubation, MTT; for SI MCF-7 (selectivity index versus NHDF): MCF-7 versus NHDF, 72 h. The method, then:
as §1, §2, §3

[7] abbreviates: normal human dermal fibroblasts (NHDF).
The mark [8] stands for this setting: 72 h incubation, MTT, absence of light.
The mark [9] stands for this setting: Caco-2, SI Caco-2 (selectivity index, cancer versus non-cancer cell line NHDF), Caco-2 versus NHDF, 72 h.
The mark [10] stands for this setting: Homo sapiens, 72 h, read-out: IC50 PC-3, PC-3, 72 h incubation, MTT.

On to `CN1C=C/C(=C/c2ccc3ccccc3[n+]2C)c2ccccc21` [Dye 12, 1-Methyl-4-((1-methylquinolin-2(1H)-ylidene)methyl)quinolin-1-ium 4-methylbenzenesulfonate], for which, in data set [1], the viability at 72 h, 10 µM is 5.72 ± 1.91%. The IC50 was 630 nM in data set [2] (72 h) and 730 nM in data set [4]. In addition, the selectivity ratio at 72 h in data set [3] (Caco-2) is 0.9. Further, the viability at 10 µM in data set [4] was 10.7 ± 0.43%; in data set [5] (Homo sapiens, 72 h), 9.02 ± 3.29%; in data set [6], 4.81 ± 1.56%.

As for `CN1C(=Cc2sc3ccccc3[n+]2C)Oc2ccccc21.Cc1ccc(S(=O)(=O)[O-])cc1` [Dye 3, 3-Methyl-2-((3-methylbenzo[d]oxazol-2(3H)-ylidene)methyl)benzo[d]thiazol-3-ium 4-methylbenzenesulfonate], the viability at 72 h, 10 µM in data set [1] (setting [7]) stood at 23.9 ± 3.05%. The IC50 in data set [2] (setting [8]) stood at 7530 nM; in data set [4], 90 nM; in data set [5] (setting [10]), 480 nM; in data set [5] (read-out: IC50 PC-3, PC-3, 72 h incubation, MTT) it was 430 nM. For the same compound, the selectivity ratio at 72 h in data set [3] (setting [9]) was found to be 81.2. Also, the viability at 10 µM in data set [4] turned out to be 5.81 ± 0.8%; in data set [5] (Homo sapiens, 72 h), 1.81 ± 0.31%; in data set [6] it was 3.04 ± 1.08%. Further, the “SI PC-3 (selectivity index versus NHDF)” value in data set [5] (72 h) is given as 17.2.

For `CN1C(=Cc2sc3ccccc3[n+]2C)C=Cc2ccccc21` [Dye 6, 3-Methyl-2-((1-methylquinolin-2(1H)-ylidene)methyl)benzo[d]thiazol-3-ium 4-methylbenzenesulfonate], in data set [1] (setting [7]), the viability at 72 h, 10 µM amounted to 4.28 ± 1.24%. Moreover, the IC50 worked out at 790 nM in data set [2] (setting [8]) and 270 nM in data set [4]. Besides, the selectivity ratio at 72 h in data set [3] (setting [9]) came to 2.9. For the same compound, the viability at 10 µM was determined as 1.93 ± 0.78% in data set [4]; 4.98 ± 1.62% in data set [5] (Homo sapiens, 72 h); 2.49 ± 0.32% in data set [6].

Take `CCN1C(=Cc2sc3ccc(NC(C)=O)cc3[n+]2CC)Sc2ccccc21.Cc1ccc(S(=O)(=O)[O-])cc1` [Dye 7, 5-Acetamido-3-ethyl-2-((3-ethylbenzo[d]thiazol-2(3H)-ylidene)methyl)benzo[d]thiazol-3-ium 4-methylbenzenesulfonate]: in data set [1] (setting [7]), the viability at 72 h, 10 µM was determined as 29 ± 4.76%. Further, the IC50 in data set [2] (setting [8]) is 11600 nM; in data set [4], 140 nM; in data set [5] (setting [10]), 3560 nM; in data set [6], 380 nM. Moreover, the selectivity ratio at 72 h in data set [3] (setting [9]) was 80.5. Further, the viability at 10 µM in data set [4] was 9.89 ± 1.38%; in data set [5] (Homo sapiens, 72 h) it was 7.97 ± 4%; in data set [6] it was 11.8 ± 4.3%. The “SI PC-3 (selectivity index versus NHDF)” value in data set [5] (72 h) came out at 3.3. The “SI MCF-7 (selectivity index versus NHDF)” value in data set [6] is recorded as 30.2.

As to `CCCCCCCCCCN1C(=Cc2sc3ccccc3[n+]2C)Sc2ccccc21.[I-]` [Dye 2, 3-Methyl-2-((3-decylbenzo[d]thiazol-2(3H)-ylidene)methyl)benzo[d]thiazol-3-ium iodide], the melting point lay within 217 to 218 °C. The viability at 72 h, 10 µM in data set [1] (setting [7]) amounted to 0.13 ± 0.43%. In addition, the IC50 in data set [2] (setting [8]) was 270 nM. Besides, the selectivity ratio at 72 h in data set [3] (setting [9]) was determined as 1.1. For the same compound, in data set [4], the IC50 amounted to 240 nM and the viability at 10 µM was found to be 1.09 ± 0.47%. Moreover, the viability at 10 µM in data set [5] (Homo sapiens, 72 h) is 0.62 ± 0.1%. For the same compound, the viability at 10 µM in data set [6] worked out at 0.62 ± 0.79%.

For `CCN1C(=Cc2sc3cc(N)ccc3[n+]2CC)Sc2ccccc21.[I-]` [Dye 11, 6-Amino-3-ethyl-2-((3-ethylbenzo[d]thiazol-2(3H)-ylidene)methyl)benzo[d]thiazol-3-ium iodide], the viability at 72 h, 10 µM in data set [1] (setting [7]) stood at 16.1 ± 2.46%. Also, the IC50 in data set [2] (setting [8]) was determined as 3000 nM; in data set [4] it was 170 nM; in data set [5] (setting [10]), 2100 nM; in data set [6], 330 nM. In addition, in data set [3] (setting [9]), the selectivity ratio at 72 h turned out to be 17.1. The viability at 10 µM came to 9.6 ± 1.47% in data set [4]; 10.5 ± 4.24% in data set [5] (Homo sapiens, 72 h); 7.65 ± 2.8% in data set [6]. In addition, in data set [5] (72 h), the “SI PC-3 (selectivity index versus NHDF)” value is 1.4. In addition, the “SI MCF-7 (selectivity index versus NHDF)” value in data set [6] is on record as 9.0.

With `CCN1C(=Cc2n(CC)c3ccc([N+](=O)[O-])cc3[n+]2CC)Sc2ccccc21.[I-]` [Dye 9, 1,3-Diethyl-2-((3-ethylbenzo[d]thiazol-2(3H)-ylidene)methyl)-5-nitro-1H-benzo[d]imidazol-3-ium iodide], the melting point was 219 to 220 °C. The viability at 72 h, 10 µM in data set [1] (setting [7]) was 38.2 ± 4.27%. Further, in data set [2] (setting [8]), the IC50 was 24500 nM. In data set [3] (setting [9]), the selectivity ratio at 72 h worked out at 17.5. Moreover, in data set [4], the IC50 amounted to 1400 nM and the viability at 10 µM was found to be 16.4 ± 0.81%. Besides, in data set [5] (Homo sapiens, 72 h), the viability at 10 µM worked out at 39.5 ± 7.97%. The viability at 10 µM in data set [6] came to 52.9 ± 8.99%.

As for `CCCCCN1C(=Cc2sc3ccccc3[n+]2C)Sc2ccccc21.[I-]` [Dye 1, 3-Methyl-2-((3-pentylbenzo[d]thiazol-2(3H)-ylidene)methyl)benzo[d]thiazol-3-ium iodide], the melting point is 254 to 258 °C. Besides, in data set [1] (setting [7]), the viability at 72 h, 10 µM was 0.84 ± 0.26%. Moreover, the IC50 in data set [2] (setting [8]) was determined as 550 nM. Also, the selectivity ratio at 72 h in data set [3] (setting [9]) came to 1.5. Further, in data set [4], the IC50 worked out at 360 nM and the viability at 10 µM is 1.37 ± 0.08%. In addition, in data set [5] (Homo sapiens, 72 h), the viability at 10 µM was found to be 0.56 ± 0.12%. In addition, the viability at 10 µM in data set [6] stood at 0.87 ± 1.05%.

Take `CN1C(=Cc2n(C)c3ccccc3[n+]2C)Sc2ccccc21.[I-]` [Dye 4, 1,3-Dimethyl-2-((3-methylbenzo[d]thiazol-2(3H)-ylidene)methyl)-1H-benzo[d]imidazol-3-ium iodide]: the melting point lay within 270 to 272 °C. Besides, the viability at 72 h, 10 µM in data set [1] (setting [7]) amounted to 23.1 ± 1.91%. For the same compound, in data set [2] (setting [8]), the IC50 was 7930 nM. For the same compound, in data set [3] (setting [9]), the selectivity ratio at 72 h turned out to be 33.6. Moreover, in data set [4], the IC50 worked out at 230 nM and the viability at 10 µM was 7.15 ± 1.08%. For the same compound, the IC50 in data set [5] (setting [10]) turned out to be 2850 nM. In data set [5] (Homo sapiens, 72 h), the viability at 10 µM is 4.09 ± 0.61%. Also, in data set [5] (72 h), the “SI PC-3 (selectivity index versus NHDF)” value is 2.8. The viability at 10 µM in data set [6] worked out at 21.6 ± 1.33%.

As to `CCN1C(=Cc2sc3ccc(N)cc3[n+]2CC)Sc2ccccc21` [Dye 8, 5-Amino-3-ethyl-2-((3-ethylbenzo[d]thiazol-2(3H)-ylidene)methyl)benzo[d]thiazol-3-ium iodide], in data set [1] (setting [7]), the viability at 72 h, 10 µM stood at 5.52 ± 0.69%. The IC50 in data set [2] (setting [8]) was determined as 950 nM; in data set [4] it was 740 nM. In data set [3] (setting [9]), the selectivity ratio at 72 h stood at 1.3. For the same compound, the viability at 10 µM is 5.21 ± 0.89% in data set [4]; 4.12 ± 1.71% in data set [5] (Homo sapiens, 72 h); 6.18 ± 1.48% in data set [6].
